The values below come from patent US20110009429A1, “HETEROCYCLIC COMPOUNDS AS INHIBITORS OF CXCR2” (priority 2008, published 2011).

SMILES strings stand for the structures. pIC50: −log10 of the molar value.

This assay addresses T1, human CXCR2 receptor (Homo sapiens, UniProt P25025).
T1 construct: purchased Biosignal Packard Inc; host or cells: CHO-K1 membranes
T1 sequence (P25025 1-360): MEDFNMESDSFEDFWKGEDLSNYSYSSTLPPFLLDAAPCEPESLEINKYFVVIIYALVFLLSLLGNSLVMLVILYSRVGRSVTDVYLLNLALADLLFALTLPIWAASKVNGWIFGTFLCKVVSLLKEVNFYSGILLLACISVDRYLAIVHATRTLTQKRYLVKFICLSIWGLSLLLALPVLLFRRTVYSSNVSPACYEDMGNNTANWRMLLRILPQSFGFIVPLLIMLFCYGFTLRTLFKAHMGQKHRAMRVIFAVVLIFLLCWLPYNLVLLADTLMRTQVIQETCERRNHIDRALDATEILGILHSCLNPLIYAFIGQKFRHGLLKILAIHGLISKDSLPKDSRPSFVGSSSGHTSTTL
Nature of the assay: [35S]-GTPγS binding assay for human CXCR2 receptor using SPA technology. It counts as biochemical. The conditions noted are these: CHO-K1 membranes expressing human CXCR2 receptors; 100 nM IL-8 stimulated [35S]GTPγS binding; read-out: IC50 values in the [35S]-GPTγS binding assay. The text has this:
[^35S]-GTPγS Binding Assay for Human CXCR2 Receptor Using SPA Technology
[^35S]-GTPγS (with specific activity 1082 Ci/mmol) and wheat germ agglutinin poly vinyl toluene scintillation proximity beads are purchased from Amersham Pharmacia Biotech. The Chinese hamster ovary cell (CHO-K1) membranes expressing human CXCR2 receptors are purchased from Biosignal Packard Inc. All other chemicals are of analytical grade. White non-binding surface 96 well Optiplate™ microplates are obtained from Packard. Recombinant human IL-8 is synthesised, cloned and expressed in Escherichia coli as described previously (Lindley I, et al., Proc. Natl. Acad. Sci., 1988, 85(23):9199). The assay is performed in duplicate in 96 well Optiplate™ microplate in a final volume of 250 μl per well. Compounds are diluted in DMSO (0.5% final concentration) and incubated in 20 mM HEPES buffer pH 7.4 containing 10 mM MgCl2, 100 mM NaCl, 1 mM EDTA plus 100 nM IL-8, 50 μM GDP and 500 pM [^35S]GTPγS per well. SPA beads (1 mg/well final concentration) were pre-mixed with the membranes (10 μg/well final concentration) in assay buffer: 20 mM HEPES buffer pH 7.4 containing 10 mM MgCl2, 100 mM NaCl, 1 mM EDTA. The bead membrane mixture is added to each well, plates are sealed and incubated at room temperature for 60 minutes. The plate is centrifuged and read on Packard TopCount™ scintillation counter, program [^35S dpm] for 1 min/well. Data are expressed as the % response to 100 nM IL-8 minus basal.
Background: GTPγS resists hydrolysis and so accumulates on activated G proteins.
In general, pIC50 refers to −log10 of the IC50, conventionally taken in molar units. For the molecule `Cc1cc2nc(CCc3ccccc3F)cc(O)n2n1` [Example 1, 5-[2-(2-Fluoro-phenyl)-ethyl]-2-methyl-pyrazolo[1,5-a]pyrimidin-7-ol], the pIC50 is 5.53. The figure for `Oc1cc(CCc2ccccc2Cl)nc2cc(Cc3ccccc3)nn12` [Example 4, 2-Benzyl-5-[2-(2-chloro-phenyl)-ethyl]-pyrazolo[1,5-a]pyrimidin-7-ol] is 6.18.

In the case of `Oc1cc(CCc2cccc(F)c2F)nc2cc(-c3ccco3)nn12` [Example 7, 5-[2-(2,3-Difluoro-phenyl)-ethyl]-2-furan-2-yl-pyrazolo[1,5-a]pyrimidin-7-ol], the negative-log IC50 (pIC50) was 6.66. Take `Cc1cc2nc(COc3ccccc3Cl)cc(O)n2n1` [Example 10, 5-(2-Chloro-phenoxymethyl)-2-methyl-pyrazolo[1,5-a]pyrimidin-7-ol]: the negative logarithm of the IC50 (pIC50) was 5.31. For `Oc1cc(COc2c(F)cccc2F)nc2cc(-c3ccco3)nn12` [Example 14, 5-(2,6-Difluoro-phenoxymethyl)-2-furan-2-yl-pyrazolo[1,5-a]pyrimidin-7-ol], the pIC50 was 5.42.

On to `Oc1cc(COc2cccnc2Cl)nc2cc(-c3ccco3)nn12` [Example 17, 5-(2-Chloro-pyridin-3-yloxymethyl)-2-furan-2-yl-pyrazolo[1,5-a]pyrimidin-7-ol], for which the negative logarithm of the IC50 (pIC50) is 6.00. With `Oc1cc(COc2cccc(F)c2F)nc2cc(-c3ccco3)nn12` [Example 22, 5-(2,3-Difluoro-phenoxymethyl)-2-furan-2-yl-pyrazolo[1,5-a]pyrimidin-7-ol], the pIC50 is 5.76. Consider `Oc1cc(COc2ccccc2Cl)nc2cc(-c3ccco3)nn12` [Example 23, 5-(2-Chloro-phenoxymethyl)-2-furan-2-yl-pyrazolo[1,5-a]pyrimidin-7-ol], for which the negative logarithm of the IC50 (pIC50) was 5.75.
